Legend:
[1] = target: T1, human mineralocorticoid receptor (hMR) (Homo sapiens, UniProt P08235); assay: GAL4-hMR-LBD luciferase reporter assay in HEK293 cells with 1 nM aldosterone (Test Example 1); format: cell-based; conditions: for Emax: HEK293, read-out: Imax; for IC50: concentration showing Imax/2, HEK293, GAL4-hMR-LBD, 1 nM aldosterone, overnight, read-out: ICmax50;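 for Imax: 0% is DMSO-only control and 100% is 1 nM aldosterone alone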
T1 construct: expressed in transfected cells; host or cells: HEK293
T1 sequence (P08235 726-964 limits assumed): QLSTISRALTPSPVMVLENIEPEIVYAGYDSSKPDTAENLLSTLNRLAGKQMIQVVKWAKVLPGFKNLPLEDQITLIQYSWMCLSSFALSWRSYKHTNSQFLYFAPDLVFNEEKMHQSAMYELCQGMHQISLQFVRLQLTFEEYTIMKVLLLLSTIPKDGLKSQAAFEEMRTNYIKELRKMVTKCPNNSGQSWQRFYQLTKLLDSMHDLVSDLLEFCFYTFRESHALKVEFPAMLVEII
Experimental: A plasmid pM-hMR-LBD expressing GAL4-hMR receptor, which has a ligand binding domain (LBD, corresponding to approximately 308 amino acids at the carboxy terminus) of human mineralocorticoid receptor (hMR, NM_000901) bonded to a DNA binding domain of yeast transcription factor GAL4 (corresponding to 147 amino acids at the amino terminus), was prepared. Reporter assay was conducted by using a reporter plasmid (such as plasmid pFR-Luc of […] CLONING SYSTEMS) including a luciferase gene, having a sequence (UAS sequence) which binds to the DNA binding domain of GAL4.
The plasmid pM-hMR-LBD and the reporter plasmid as obtained above were gene transferred into renal cell line HEK293 of human fetus by lipofection. On the next day, cells were collected by trypsin treatment, and dispensed with DMEM culture medium containing 5% of FBS treated by activated charcoal, to a white 96-well plate (Costar) with the amount of 95 microliter per well.
The test compounds were used as dissolved in dimethyl sulfoxide at a predetermined concentration, and the test compounds suitably diluted with culture media were added to the cells on the white 96-well plate so that the final concentration becomes 0.1%. […] After the addition, cultivation was carried out overnight.
On the next day, the culture media was removed, and then luciferase substrate (Wako Pure Chemical Industries, Ltd.) was prepared in accordance with the attached document and were added to each well by 50 microliters. Stirring was conducted for approximately 30 minutes, and the amount of luminescence was measured for each well by using Analyst (Molecular Devices), to obtain luciferase activity. A graph which plots relative luciferase activity values, when the luciferase activity value of Control group 1 was taken as 0% and the luciferase activity value of Control group 2 was taken as 100%, for each of the amount of the test compound addition group was made.

[2] = Plasma concentration after intragastric administration to cynomolgus monkey (Test Example 2); format: in vivo; conditions: for AUC, area under the plasma concentration versus time curve / Cmax: male cynomolgus monkey, 3 mg/kg intragastric in 0.5% MC, LC-MS/MS, plasma; for AUC, area under the plasma concentration versus time curve: noncompartment model; for Cmax: po, read-out: Cmax, maximum concentration
Experimental: Cynomolgus monkey (male) was used, and it was fasted from the day before administration of the test compound.
Administration samples were prepared by adding a 0.5% MC (methyl cellulose) solution to the Test Compound, so that the dose becomes 3 mg/2 mL/kg. Each of the administration samples was administered intragastrically to the cynomolgus monkey by using a tube. After the samples were administered, approximately 5 mL of 0.5% MC was administered. For each of the administration samples, a group of two cynomolgus monkeys was administered.
With respect to collection of blood, it was conducted by collecting approximately 0.5 mL of blood from crotch vein using a glass syringe treated with heparin, before administration, and 30 minutes, 1, 2, 4, 6, 8, 24 and 48 hours after administration. Blood was centrifuged (1,700×g, 15 min, 4° C.) to obtain plasma. Plasma was stored in a freezer (−20° C.) until pretreatment.
Preparation of standard solution and internal standard (IS) solution: Each of the Test Compounds was dissolved in DMSO (dimethyl sulfoxide) to prepare a solution of 10 mM each. Each of the compound solution was diluted with acetonitrile, and thus standard solution was prepared. Further, niflumic acid (Wako Pure Chemical Industries, Ltd.) was dissolved in DMSO at the concentration of 2 mM, followed by dilution with acetonitrile to prepare an IS solution of 2 μM.
Pretreatment of plasma samples: 20 μL of plasma sample was collected, and then 25 μL of purified water, 100 μL of acetonitrile, and 100 μL of methanol was added. For the preparation of a calibration curve, 25 μL of purified water, 20 μL of each of the standard solutions (acetonitrile solution), 80 μL of acetonitrile, and 100 μL of methanol were added to 20 μL of blank plasma. 40 μL of the acetonitrile solution of IS was added to all of the samples, and then the samples were stirred, filtered by suction using Captiva filter plate (Varian, Inc.), and then the filtrate was used as the sample for LC-MS/MS analysis.
Quantitative Determination of Test Compound: Concentration in plasma was analyzed by LC-MS/MS method for each Test Compound.
Analysis: Pharmacokinetic parameter was calculated from concentration of each of the drugs in plasma, by using WinNonlin Professional (Ver. 4.0.1, Pharsight Corporation). Here, Noncompartment model was used as the model for parameter calculation.

SMILES | Emax [1] | IC50 [1] | AUC, area under the plasma concentration versus time curve [2] | Cmax [2] | concentration in plasma compared with Reference compound A and Reference compound B ([2]; summary of Table 16, cynomolgus monkey, 3 mg/kg)
Cc1c(C(=O)Nc2ccc(S(C)(=O)=O)cc2)cc(CCO)n1-c1ccc(F)cc1C(F)(F)F [Example 62, 1-[4-Fluoro-2-(trifluoromethyl)phenyl]-5-(2-hydroxyethyl)-2-methyl-N-[4-(methylsulfonyl)phenyl]-1H-pyrrole-3-carboxamide] |  |  | 8.06 µg·h/mL | 660 ng/mL | considerably improved concentration in plasma
Cc1cc(C(=O)Nc2ccc(S(C)(=O)=O)cc2)c(C)n1-c1ccccc1C(F)(F)F [Reference compound A, 1-[2-(trifluoromethyl)phenyl]-2,5-dimethyl-N-[4-(methylsulfonyl)phenyl]-1H-pyrrole-3-carboxamide, reference compound] | 114% | 14 nM | 0.03 µg·h/mL | < 10 ng/mL | 
Cc1c(C(=O)Nc2ccc(S(C)(=O)=O)cc2)cc(C[C@H](C)O)n1-c1ccc(F)cc1OC(F)F (single isomer, unassigned) [Example 9 - isomer A] | 84% | 18 nM | 23.95 µg·h/mL | 2350 ng/mL | 
Cc1c(C(=O)Nc2ccc(S(C)(=O)=O)cc2)cc(CCF)n1-c1ccc(F)cc1OC(F)F (single isomer, unassigned) [Example 54 - isomer A, 1-[2-(Difluoromethoxy)-4-fluorophenyl]-5-(2-fluoroethyl)-2-methyl-N-[4-(methylsulfonyl)phenyl]-1H-pyrrole-3-carboxamide] | 99% | 6.5 nM | 11.41 µg·h/mL | 970 ng/mL | 
Cc1c(C(=O)Nc2ccc(S(C)(=O)=O)cc2)cc(C[C@H](C)O)n1-c1ccc(Cl)cc1C(F)(F)F (single isomer, unassigned) [Example 6 - isomer A] | 79% | 3.1 nM | 30.28 µg·h/mL | 1730 ng/mL | 
Cc1c(C(=O)Nc2ccc(S(C)(=O)=O)cc2)cc(CCO)n1-c1ccc(Cl)cc1C(F)(F)F (single isomer, unassigned) [Example 1 - isomer A, 1-[4-Chloro-2-(trifluoromethyl)phenyl]-5-(2-hydroxyethyl)-2-methyl-N-[4-(methylsulfonyl)phenyl]-1H-pyrrole-3-carboxamide] | 87% | 3.7 nM | 14.11 µg·h/mL | 990 ng/mL | 
Cc1cc(C(=O)Nc2ccc(S(C)(=O)=O)cc2)c(C)n1-c1ccc(F)cc1C(F)(F)F [Reference compound B, 1-[4-fluoro-2-(trifluoromethyl)phenyl]-2,5-dimethyl-N-[4-(methylsulfonyl)phenyl]-1H-pyrrole-3-carboxamide, reference compound] | 93% | 12 nM | 0.17 µg·h/mL | 10 ng/mL | 

Further lines, with some results ahead:

Emax [1] | IC50 [1] | AUC, area under the plasma concentration versus time curve [2] | Cmax [2] | SMILES | concentration in plasma compared with Reference compound A and Reference compound B ([2]; summary of Table 16, cynomolgus monkey, 3 mg/kg)
101% | 3.6 nM | 13.49 µg·h/mL | 1000 ng/mL | Cc1c(C(=O)Nc2ccc(S(C)(=O)=O)cc2)cc(C[C@H](C)O)n1-c1ccc(F)cc1OC(F)(F)F (single isomer, unassigned) [Example 16 - isomer A] | 
89% | 7.3 nM | 24.81 µg·h/mL | 1600 ng/mL | Cc1c(C(=O)Nc2ccc(S(C)(=O)=O)cc2)cc(C[C@H](C)O)n1-c1ccc(Cl)cc1OC(F)F (single isomer, unassigned) [Example 11 - isomer A] | 
91% | 9.6 nM | 15.11 µg·h/mL | 1300 ng/mL | Cc1c(C(=O)Nc2ccc(S(C)(=O)=O)cc2)cc(C[C@H](C)O)n1-c1ccc(F)cc1Cl (single isomer, unassigned) [Example 40 - isomer A] | 
119% | 3.4 nM | 31.31 µg·h/mL | 1600 ng/mL | Cc1c(C(=O)Nc2ccc(S(C)(=O)=O)cc2)cc(C[C@H](C)O)n1-c1ccc(F)cc1C(F)(F)F (single isomer, unassigned) [Example 5 - isomer A] | 
123% | 5.5 nM | 14.82 µg·h/mL | 1140 ng/mL | Cc1c(C(=O)Nc2ccc(S(C)(=O)=O)cc2)cc(C[C@H](C)O)n1-c1ccc(Cl)cc1Cl (single isomer, unassigned) [Example 43 - isomer A] | 
98% | 12 nM | 16.92 µg·h/mL | 940 ng/mL | CCc1c(C(=O)Nc2ccc(S(C)(=O)=O)cc2)cc(C[C@H](C)O)n1-c1ccc(F)cc1Cl (single isomer, unassigned) [Example 44 - isomer B] | 
95% | 2.7 nM | 23.86 µg·h/mL | 1660 ng/mL | Cc1c(C(=O)Nc2ccc(S(C)(=O)=O)cc2)cc(C[C@H](C)O)n1-c1ccc(Cl)cc1OC(F)(F)F (single isomer, unassigned) [Example 42 - isomer B] | 
124% | 11 nM | 10.94 µg·h/mL | 830 ng/mL | Cc1cc(Cl)ccc1-n1c(CCF)cc(C(=O)Nc2ccc(S(C)(=O)=O)cc2)c1C (single isomer, unassigned) [Example 51 - isomer A, 1-(4-Chloro-2-methylphenyl)-5-(2-fluoroethyl)-2-methyl-N-[4-(methylsulfonyl)phenyl]-1H-pyrrole-3-carboxamide] | 
99% | 6.1 nM |  |  | Cc1cc(NC(=O)c2cc(C[C@H](C)O)n(-c3ccc(F)cc3OC(F)F)c2C)ccc1S(C)(=O)=O (single isomer, unassigned) [Example 22 - isomer A] | 

Source: patent publication US8642640B2, “1-phenylpyrrole derivatives” (Exelixis, Inc., priority 2008, dated 2014)
